Patent US11807693B2 (priority 2014, dated 2023)
Read-outs that look alike come from different tables or passages of the source. Starred links: 1 amine or outer side, 2 acyl side, 3 side chain; linkers in the order of their positions; H or OH if unused. Non-standard residues stand in square brackets, D forms with d. Residues, ends and D or L forms follow the SMILES beside them. *: point of attachment. dBip = N[C@H](Cc1ccc(-c2ccccc2)cc1)C(=O)O; Oic = O=C(O)[C@@H]1C[C@@H]2CCCC[C@@H]2N1; Phe(4-Cl) = N[C@@H](Cc1ccc(Cl)cc1)C(=O)O; Phe(4-I) = N[C@@H](Cc1ccc(I)cc1)C(=O)O; γGlu = O=C(O)[C@H](CCC(=O)[*:2])N[*:1]; 2Nal = N[C@@H](Cc1ccc2ccccc2c1)C(=O)O; d(β3hF) = N[C@@H](CC(=O)O)Cc1ccccc1; NMeR = CN[C@@H](CCCNC(=N)N)C(=O)O; Palmitoyl = CCCCCCCCCCCCCCCC(=O)*; Tridecanoyl = CCCCCCCCCCCCC(=O)*; X1 = O=C(CN(C1CCNCC1)[*:1])[*:2]; hArg = N=C(N)NCCCC[C@H](N)C(=O)O; Cha = N[C@@H](CC1CCCCC1)C(=O)O; NMeL = CN[C@@H](CC(C)C)C(=O)O; αMeL = CC(C)C[C@](C)(N)C(=O)O; Tle = CC(C)(C)[C@H](N)C(=O)O; β3hP = O=C(O)C[C@@H]1CCCN1; Nle = CCCC[C@H](N)C(=O)O; AEEA = NCCOCCOCC(=O)O; βAla = NCCC(=O)O

Columns and labels:
[1] = In vitro stability in rat liver homogenate; type: in vitro ADME; settings: tissue homogenate
How it was run: (§1)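 High resolution LC-MS of the supernatant gave remaining peptide. Samples came from 37° C. incubations of 5 μM apelin peptide in rat plasma or liver or kidney homogenate over 4 hr, stopped with methanol plus internal standard.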

rat APJ receptor = target: T1, rat APJ receptor (Rattus norvegicus, UniProt Q9JHG3); assay: [35S] GTPγS assay, rat APJ receptor; type: biochemical
T1 construct: expressed in transfected cells
T1 sequence (Q9JHG3 1-377): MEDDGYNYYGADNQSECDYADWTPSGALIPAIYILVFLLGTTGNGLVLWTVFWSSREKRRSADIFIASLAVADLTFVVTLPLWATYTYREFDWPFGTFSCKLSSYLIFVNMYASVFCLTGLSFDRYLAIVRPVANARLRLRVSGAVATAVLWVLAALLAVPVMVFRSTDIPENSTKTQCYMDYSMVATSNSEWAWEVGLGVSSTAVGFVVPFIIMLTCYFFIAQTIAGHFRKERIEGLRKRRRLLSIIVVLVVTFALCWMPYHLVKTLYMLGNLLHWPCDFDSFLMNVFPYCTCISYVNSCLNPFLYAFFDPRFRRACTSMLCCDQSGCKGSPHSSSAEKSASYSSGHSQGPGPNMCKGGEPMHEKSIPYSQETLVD
Method: The membranes were incubated with modified peptides in the assay buffer. […] Bound [^35S] GTPγS was separated from free radiolabel by filtration. The filter bound radioactivity was determined by liquid scintillation counting.

[2] = In vitro stability in rat plasma; type: in vitro ADME
How it was run: as §1

[3] = In vitro stability in rat kidney homogenate; type: in vitro ADME; settings: rat, tissue homogenate
Method: Apelin peptides were spiked into rat plasma, liver homogenate, and kidney homogenate, which were obtained from commercial sources, to a final concentration of 5 μM. The samples were then incubated at 37° C. over a period of 4 hr. […] In a typical experiment, an aliquot of 100 μL of sample was taken from the incubation vial, followed by addition of 300 μL of MeOH containing internal standard. The quenched sample was centrifuged at 5500 g for 15 min after 15 min vortex in room temperature. The supernatant was then analyzed by high resolution LC-MS. […] In vitro plasma, […], and kidney stability results are shown below in Table 14.

[4] = rat APJ receptor, read-out: EC50 Rat APJ Receptor
[5] = Table 16, read-out: EC50 Rat APJ Receptor

remaining at 4 h, 5 μM [1] [%]	EC50 (rat APJ receptor; [4]) [nM]	remaining at 4 h, 5 μM [2] [%]	EC50 (rat APJ receptor; [5]) [nM]	remaining at 4 h, 5 μM [3] [%]	SMILES
< 1	5.94	< 1			CCCCCC(=O)N[C@@H](CCC(=O)NCCOCCOCC(=O)NCCOCCOCC(=O)N[C@@H](CCC(N)=O)C(=O)N(C)[C@@H](CCCCNC(=N)N)C(=O)N1CCC[C@H]1C(=O)N(C)[C@@H](CCCNC(=N)N)C(=O)N[C@@](C)(CC(C)C)C(=O)N[C@@H](CO)C(=O)N[C@@H](Cc1c[nH]cn1)C(=O)N[C@@H](CCCCN)C(=O)NCC(=O)N1CCC[C@H]1C(=O)N[C@@H](CCCC)C(=O)N1CCC[C@H]1C(=O)N[C@@H](Cc1ccc(Cl)cc1)C(=O)O)C(=O)O [compound 561]
0		88	0.23		CCCCCCCCCCCCC(=O)N[C@@H](CCC(=O)NCCOCCOCC(=O)NCCOCCOCC(=O)N[C@@H](CCC(N)=O)C(=O)N[C@@H](CCCNC(=N)N)C(=O)N1CCC[C@H]1C(=O)N(C)[C@@H](CCCNC(=N)N)C(=O)N[C@@H](CC(C)C)C(=O)N[C@@H](CO)C(=O)N[C@@H](Cc1c[nH]cn1)C(=O)N[C@@H](CCCCN)C(=O)NCC(=O)N1[C@H](C(=O)N[C@@H](CCCC)C(=O)N2CCC[C@H]2C(=O)N[C@@H](Cc2ccc(Cl)cc2)C(=O)O)C[C@@H]2CCCC[C@@H]21)C(=O)O [compound 352] ({Tridecanoyl-γGlu-AEEA-AEEA}-QRP[NMeR]LSHKG[Oic][Nle]P[Phe(4-Cl)]-OH)
< 1		> 90	1.14		CCCCCCCCCCCCC(=O)N[C@@H](CCC(=O)NCCOCCOCC(=O)NCCOCCOCC(=O)N[C@@H](CCC(N)=O)C(=O)N[C@@H](CCCNC(=N)N)C(=O)N(C)[C@@H](CCCNC(=N)N)C(=O)N[C@@](C)(CC(C)C)C(=O)N[C@@H](CO)C(=O)N[C@@H](Cc1c[nH]cn1)C(=O)N[C@@H](CCCCN)C(=O)NCC(=O)N1[C@H](C(=O)N[C@@H](CCCC)C(=O)N2CCC[C@H]2C(=O)N[C@@H](Cc2ccc(Cl)cc2)C(=O)O)C[C@@H]2CCCC[C@@H]21)C(=O)O [compound 396] ({Tridecanoyl-γGlu-AEEA-AEEA}-QR[NMeR][αMeL]SHKG[Oic][Nle]P[Phe(4-Cl)]-OH)
< 1	32.4	< 1			CC[C@H](NC(=O)[C@H](CC(N)=O)NC(=O)[C@H](Cc1c[nH]cn1)NC(=O)[C@H](CCCCN)NC(=O)[C@H](CCCNC(=N)N)NC(=O)[C@H](CC(C)C)NC(=O)[C@@H](N)CCCCN)C(=O)N[C@@H](CC(C)C)C(=O)N[C@@H](CCC(N)=O)C(=O)N[C@@H](CCCNC(=N)N)C(=O)N[C@@H](CCCNC(=N)N)C(=O)N[C@@H](CC)C(=O)N[C@@H](CCSC)C(=O)N1CCC[C@H]1C(=O)N[C@@H](CC(C)C)C(=O)N[C@@H](Cc1c[nH]cn1)C(=O)N[C@@H](CO)C(=O)N[C@@H](CCCNC(=N)N)C(=O)N[C@H](C(=O)N1CCC[C@H]1C(=O)N[C@@H](Cc1ccccc1)C(=O)N1CCC[C@H]1C(=O)O)C(C)C [compound 14]
84.9	9.74	86.1			CCCC[C@H](NC(=O)[C@@H]1CCCN1C(=O)CNC(=O)[C@H](CCCCN)NC(=O)[C@H](Cc1c[nH]cn1)NC(=O)[C@H](CO)NC(=O)[C@](C)(CC(C)C)NC(=O)[C@H](CCCCNC(=N)N)NC(=O)[C@@H]1CCCN1C(=O)[C@@H](CCCNC(=N)N)NC(=O)[C@H](CCC(N)=O)NC(C)=O)C(=O)N1CCC[C@H]1C(=O)N[C@@H](Cc1ccc(Cl)cc1)C(=O)O [compound 70]
< 1		2	17.2		CCCCCCCCCCCCC(=O)N[C@@H](CCC(=O)NCCOCCOCC(=O)NCCOCCOCC(=O)N[C@@H](CCC(N)=O)C(=O)N[C@@H](CCCNC(=N)N)C(=O)N1CCC[C@H]1C(=O)N(C)[C@@H](CCCNC(=N)N)C(=O)N[C@@H](CC(C)C)C(=O)N[C@@H](CO)C(=O)N[C@@H](Cc1c[nH]cn1)C(=O)NCCC(=O)NCC(=O)N1CCC[C@H]1C(=O)N[C@@H](CCCC)C(=O)N1CCC[C@H]1C(=O)N[C@@H](Cc1ccc(Cl)cc1)C(=O)O)C(=O)O [compound 424] ({Tridecanoyl-γGlu-AEEA-AEEA}-QRP[NMeR]LSH[βAla]GP[Nle]P[Phe(4-Cl)]-OH)
			13.8		CCCCCCCCCCCCC(=O)N[C@@H](CCC(=O)NCCOCCOCC(=O)NCCOCCOCC(=O)N[C@@H](CCC(N)=O)C(=O)N[C@@H](CCCCNC(=N)N)C(=O)N1CCC[C@H]1C(=O)N(C)[C@@H](CCCNC(=N)N)C(=O)N[C@@H](CC1CCCCC1)C(=O)N[C@@H](CO)C(=O)N[C@@H](Cc1c[nH]cn1)C(=O)N[C@@H](CCCCN)C(=O)NCC(=O)N1[C@H](C(=O)N[C@@H](CCCC)C(=O)N2CCC[C@H]2C(=O)N[C@@H](Cc2ccc3ccccc3c2)C(=O)O)C[C@@H]2CCCC[C@@H]21)C(=O)O [compound 405] ({Tridecanoyl-γGlu-AEEA-AEEA}-Q[hArg]P[NMeR][Cha]SHKG[Oic][Nle]P[2Nal]-OH)
			3.21		CCCCCCCCCCCCC(=O)N[C@@H](CCC(=O)NCCOCCOCC(=O)NCCOCCOCC(=O)N[C@@H](CCC(N)=O)C(=O)N[C@@H](CCCNC(=N)N)C(=O)N1CCC[C@H]1C(=O)N(C)[C@@H](CCCNC(=N)N)C(=O)N[C@H](C(=O)N[C@@H](CO)C(=O)N[C@@H](Cc1c[nH]cn1)C(=O)N[C@@H](CCCCN)C(=O)NCC(=O)N1[C@H](C(=O)N[C@@H](CCCC)C(=O)N2CCC[C@H]2C(=O)N[C@@H](Cc2ccc(Cl)cc2)C(=O)O)C[C@@H]2CCCC[C@@H]21)C(C)(C)C)C(=O)O [compound 439] ({Tridecanoyl-γGlu-AEEA-AEEA}-QRP[NMeR][Tle]SHKG[Oic][Nle]P[Phe(4-Cl)]-OH)
			8.1		CCCCCCCCCCCCC(=O)N[C@@H](CCC(=O)NCCOCCOCC(=O)NCCOCCOCC(=O)N[C@@H](CCC(N)=O)C(=O)N[C@@H](CCCNC(=N)N)C(=O)N1CCC[C@H]1C(=O)N(C)[C@@H](CCCNC(=N)N)C(=O)N[C@@H](CC1CCCCC1)C(=O)N[C@@H](CO)C(=O)N[C@@H](Cc1c[nH]cn1)C(=O)N[C@@H](CCCCN)C(=O)NCC(=O)N1CCC[C@H]1CC(=O)N[C@@H](CCCC)C(=O)N1CCC[C@H]1C(=O)N[C@@H](Cc1ccc(Cl)cc1)C(=O)O)C(=O)O [compound 417] ({Tridecanoyl-γGlu-AEEA-AEEA}-QRP[NMeR][Cha]SHKG[β3hP][Nle]P[Phe(4-Cl)]-OH)
	46				CCCCCCCCCCCCC(=O)N[C@@H](CCC(=O)NCCOCCOCC(=O)NCCOCCOCC(=O)N[C@@H](CCCCNC(=N)N)C(=O)N[C@H](CCCNC(=N)N)C(=O)N[C@@H](CCC(N)=O)C(=O)N[C@@H](CCCCNC(=N)N)C(=O)N1CCC[C@H]1C(=O)N[C@H](CCCNC(=N)N)C(=O)N(C)[C@@H](CC(C)C)C(=O)N[C@@H](C)C(=O)N[C@@H](Cc1c[nH]cn1)C(=O)N[C@@H](CCCC)C(=O)NCC(=O)N1[C@H](C(=O)N[C@@H](Cc2ccc(I)cc2)C(=O)N2CCC[C@H]2C(=O)N[C@H](Cc2ccc(-c3ccccc3)cc2)C(=O)O)C[C@@H]2CCCC[C@@H]21)C(=O)O [compound 318] ({Tridecanoyl-γGlu-AEEA-AEEA}-[hArg][dR]Q[hArg]P[dR][NMeL]AH[Nle]G[Oic][Phe(4-I)]P[dBip]-OH)
	0.147				CCCCCC(=O)N[C@@H](CCC(=O)NCCOCCOCC(=O)NCCOCCOCC(=O)N[C@@H](CCC(N)=O)C(=O)N[C@@H](CCCNC(=N)N)C(=O)N1CCC[C@H]1C(=O)N(C)[C@@H](CCCNC(=N)N)C(=O)N[C@@H](CC(C)C)C(=O)N[C@@H](CO)C(=O)N[C@@H](Cc1c[nH]cn1)C(=O)N[C@@H](CCCCN)C(=O)NCC(=O)N1CCC[C@H]1C(=O)N[C@@H](CCCC)C(=O)N1CCC[C@H]1C(=O)N[C@@H](Cc1ccc(Cl)cc1)C(=O)O)C(=O)O [compound 492]
				64	CCCCCCCCCCCCC(=O)N[C@@H](CCC(=O)NCCOCCOCC(=O)NCCOCCOCC(=O)N[C@H](CCC(N)=O)C(=O)N[C@@H](CCCCNC(=N)N)C(=O)N1CCC[C@H]1C(=O)N[C@H](CCCNC(=N)N)C(=O)N[C@@H](CC1CCCCC1)C(=O)N[C@@H](CO)C(=O)N[C@@H](Cc1ccc(O)cc1)C(=O)N[C@@H](CCCCN)C(=O)NCC(=O)N1[C@H](C(=O)N[C@@H](CCCC)C(=O)N2CCC[C@H]2C(=O)N[C@@H](Cc2ccc(Cl)cc2)C(=O)O)C[C@@H]2CCCC[C@@H]21)C(=O)O [compound 373] ({Tridecanoyl-γGlu-AEEA-AEEA}-[dQ][hArg]P[dR][Cha]SYKG[Oic][Nle]P[Phe(4-Cl)]-OH)
	> 4170				CCCCCCCCCCCCCCCC(=O)N[C@@H](CCC(=O)NCCOCCOCC(=O)NCCOCCOCC(=O)N[C@H](CCC(N)=O)C(=O)N[C@@H](CCCNC(=N)N)C(=O)N1CCC[C@H]1C(=O)N(C)[C@@H](CCCNC(=N)N)C(=O)N[C@@H](CC1CCCCC1)C(=O)N[C@@H](CO)C(=O)N[C@@H](Cc1c[nH]cn1)C(=O)N(CC(=O)NCC(=O)N1[C@H](C(=O)N[C@@H](CCCC)C(=O)N2CCC[C@H]2CC(=O)N[C@@H](CC(=O)O)Cc2ccccc2)C[C@@H]2CCCC[C@@H]21)C1CCNCC1)C(=O)O [compound 633] ({Palmitoyl-γGlu-AEEA-AEEA}-[dQ]RP[NMeR][Cha]SH[X1]G[Oic][Nle][β3hP][d(β3hF)]-OH)
